Data from patent US7491723B2, “Alkanol and cycloalkanol-amine derivatives and methods of their use” (Wyeth, priority 2003, dated 2009).
Structures can show the parent of a compound that is named as a salt.

target: T1, human hNET (Homo sapiens, UniProt P23975); assay: Norepinephrine (NE) uptake assay in MDCK-Net6 cells; format: cell-based; settings: 1 μM test compound, [3H]NE uptake
T1 construct: expressed in transfected cells
Method: MDCK-Net6 cells, stably transfected with human hNET (Pacholczyk, T., R. D. Blakely, and S. G. Amara, Nature, 1991, 350(6316): p. 350-4) were cultured in growth medium containing high glucose DMEM (Gibco, Cat. No. 11995), 10% FBS (dialyzed, heat-inactivated, US Bio-Technologies, Lot FBD1129HI) and 500 μg/ml G418 (Gibco, Cat. No. 10131). Cells were plated at 300,000/T75 flask and cells were split twice weekly. The JAR cell line (human placental choriocarcinoma) was purchased from ATCC (Cat. No. HTB-144). The cells were cultured in growth medium containing RPMI 1640 (Gibco, Cat. No. 72400), 10% FBS (Irvine, Cat. No. 3000), 1% sodium pyruvate (Gibco, Cat. No. 1136) and 0.25% glucose. Cells were plated at 250,000 cells/T75 flask and split twice weekly. For all assays, cells were plated in Wallac 96-well sterile plates (PerkinElmer, Cat. No. 3983498).
On day 1, cells were plated at 3,000 cells/well in growth medium and maintained in a cell incubator (37° C., 5% CO2). On day 2, growth medium was replaced with 200 μl of assay buffer (25 mM HEPES; 120 mM NaCl; 5 mM KCl; 2.5 mM CaCl2; 1.2 mM MgSO4; 2 mg/ml glucose (pH 7.4, 37° C.)) containing 0.2 mg/ml ascorbic acid and 10 μM pargyline. Plates containing cells with 200 μl of assay buffer were equilibrated for 10 minutes at 37° C. prior to addition of compounds. A stock solution of desipramine was prepared in DMSO (10 mM) and delivered to triplicate wells containing cells for a final test concentration of 1 μM. Data from these wells were used to define non-specific NE uptake (minimum NE uptake). Test compounds were prepared in DMSO (10 mM) and diluted in assay buffer according to test range (1 to 10,000 nM). Twenty-five microliters of assay buffer (maximum NE uptake) or test compound were added directly to triplicate wells containing cells in 200 μl of assay buffer. The cells in assay buffer with test compounds were incubated for 20 minutes at 37° C. To initiate the NE uptake, [^3H]NE diluted in assay buffer (120 nM final assay concentration) was delivered in 25 μl aliquots to each well and the plates were incubated for 5 minutes (37° C.). The reaction was terminated by decanting the supernatant from the plate. The plates containing cells were washed twice with 200 μl assay buffer (37° C.) to remove free radioligand. The plates were then inverted, left to dry for 2 minutes, then reinverted and air-dried for an additional 10 minutes. The cells were lysed in 25 μl of 0.25 N NaOH solution (4° C.), placed on a shake table and vigorously shaken for 5 minutes. After cell lysis, 75 μl of scintillation cocktail was added to each well and the plates were sealed with film tape. The plates were returned to the shake table and vigorously shaken for a minimum of 10 minutes to ensure adequate partitioning of organic and aqueous solutions. The plates were counted in a Wallac Microbeta counter (PerkinElmer) to collect the raw cpm data.
For each experiment, a data stream of cpm values collected from the Wallac Microbeta counter was downloaded to a Microsoft Excel statistical application program. Calculations of EC50 values were made using the transformed-both-sides logistic dose response program written by Wyeth Biometrics Department. The statistical program uses mean cpm values from wells representing maximum binding or uptake (assay buffer) and mean cpm values from wells representing minimum binding or uptake ((1 μM desipramine (hNET) or 1 μM paroxetine (hSERT)). Estimation of the EC50 value was completed on a log scale and the line was fit between the maximum and minimum binding or uptake values. All graphic data representation was generated by normalizing each data point to a mean percent based on the maximum and minimum binding or uptake values. The EC50 values reported from multiple experiments were calculated by pooling the raw data from each experiment and analyzing the pooled data as one experiment.

T1 sequence (P23975 whole entry): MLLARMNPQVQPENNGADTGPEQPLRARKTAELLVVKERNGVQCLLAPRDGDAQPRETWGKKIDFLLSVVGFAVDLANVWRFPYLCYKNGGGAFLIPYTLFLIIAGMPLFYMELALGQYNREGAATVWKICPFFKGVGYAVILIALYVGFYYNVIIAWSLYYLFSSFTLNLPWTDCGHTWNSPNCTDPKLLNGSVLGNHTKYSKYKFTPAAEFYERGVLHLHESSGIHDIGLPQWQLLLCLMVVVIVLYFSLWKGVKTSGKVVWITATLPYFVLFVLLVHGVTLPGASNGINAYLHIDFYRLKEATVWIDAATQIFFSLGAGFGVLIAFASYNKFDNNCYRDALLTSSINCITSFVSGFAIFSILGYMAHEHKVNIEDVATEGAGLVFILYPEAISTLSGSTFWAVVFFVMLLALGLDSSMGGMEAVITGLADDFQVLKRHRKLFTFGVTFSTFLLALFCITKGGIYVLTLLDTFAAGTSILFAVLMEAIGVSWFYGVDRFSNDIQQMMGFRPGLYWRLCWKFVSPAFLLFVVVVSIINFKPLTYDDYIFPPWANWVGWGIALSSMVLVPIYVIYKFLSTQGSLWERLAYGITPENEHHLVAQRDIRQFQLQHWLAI

Row | SMILES | inhibition at 1 µM [%]
1 | CN1CCC(O)(C(CN2CCNCC2)c2ccc(Cl)c(Cl)c2)CC1 (centres unmarked) [Example 37, 4-[1-(3,4-dichlorophenyl)-2-piperazin-1-ylethyl]-1-methylpiperidin-4-ol trihydrochloride] | 57
2 | CCC(O)(CC)C(CN1CCNCC1)c1cccc(Br)c1 (centres unmarked) [Example 50, 2-(3-bromophenyl)-3-ethyl-1-piperazin-1-ylpentan-3-ol dihydrochloride] | 89
3 | CCCC(O)(CCC)C(CN1CCNCC1)c1cccc(Cl)c1 (centres unmarked) [Example 51, 4-[1-(3-chlorophenyl)-2-piperazin-1-ylethyl]heptan-4-ol dihydrochloride] | 44
4 | CCC(O)(CC)C(CN1CCNCC1)c1cccc(Cl)c1 (centres unmarked) [Example 52, 2-(3-chlorophenyl)-3-ethyl-1-piperazin-1-ylpentan-3-ol dihydrochloride] | 37
5 | CCC(O)(CC)C(CN1CCNCC1)c1ccc(OC)c(Br)c1 (centres unmarked) [Example 65, 2-(3-bromo-4-methoxyphenyl)-3-ethyl-1-piperazin-1-ylpentan-3-ol dihydrochloride] | 12
6 | CCC(O)(CC)C(CN1CCN(C)CC1)c1ccc(OC)c(Br)c1 (centres unmarked) [Example 66, 2-(3-bromo-4-methoxyphenyl)-3-ethyl-1-(4-methylpiperazin-1-yl)pentan-3-ol dihydrochloride] | 26
7 | OC1(C(CN2CCNCC2)c2cccc(Cl)c2)CCCC2CCCCC21 (centres unmarked) [Example 72, 1-[1-(3-chlorophenyl)-2-piperazin-1-ylethyl]decahydronaphthalen-1-ol dihydrochloride] | 25
8 | OC1(C(CN2CCNCC2)c2cccc(Cl)c2)CCC2CCCCC2C1 (centres unmarked) [Example 74, 2-[1-(3-chlorophenyl)-2-piperazin-1-ylethyl]decahydronaphthalen-2-ol dihydrochloride] | 24
9 | OC1(C(CN2CCNCC2)c2cccc(Cl)c2)CCOCC1 (centres unmarked) [Example 77, 4-[1-(3-chlorophenyl)-2-piperazin-1-ylethyl]tetrahydro-2H-pyran-4-ol dihydrochloride] | 31
10 | CCCC(O)(CCC)C(CN1CCNCC1)c1cccc(Br)c1 (centres unmarked) [Example 81, 4-[1-(3-bromophenyl)-2-piperazin-1-ylethyl]heptan-4-ol dihydrochloride] | 18
11 | Clc1cccc(C(CN2CCNCC2)C2CCCC2)c1 (centres unmarked) [Example 226, 1-[2-(3-chlorophenyl)-2-cyclopentylethyl]piperazine dihydrochloride] | 53
12 | CN1CCN(CC(c2cccc(Cl)c2)C2CCCC2)CC1 (centres unmarked) [Example 227, 1-[2-(3-chlorophenyl)-2-cyclopentylethyl]-4-methylpiperazine dihydrochloride] | 48.2
13 | Clc1cccc(C(CN2CCNCC2)C2CCCCC2)c1 (centres unmarked) [Example 230, 1-[2-(3-chlorophenyl)-2-cyclohexylethyl]piperazine dihydrochloride] | 88.3
14 | CN1CCN(CC(c2cccc(Cl)c2)C2CCCCC2)CC1 (centres unmarked) [Example 231, 1-[2-(3-chlorophenyl)-2-cyclohexylethyl]-4-methylpiperazine dihydrochloride] | 91.2
15 | Clc1cccc(C(CN2CCNCC2)C2CCCCCC2)c1 (centres unmarked) [Example 234, 1-[2-(3-chlorophenyl)-2-cycloheptylethyl]piperazine dihydrochloride] | 67.7
16 | CN1CCN(CC(c2cccc(Cl)c2)C2CCCCCC2)CC1 (centres unmarked) [Example 235, 1-[2-(3-chlorophenyl)-2-cycloheptylethyl]-4-methylpiperazine dihydrochloride] | 80.5
17 | OC1CCCCC1C(CN1CCNCC1)c1cccc(Cl)c1 (centres unmarked) [Example 238, 2-[1-(3-chlorophenyl)-2-piperazin-1-ylethyl]cyclohexanol dihydrochloride] | 72.9
18 | CC(C)(O)C(CN1CCNCC1)c1cccc(Cl)c1 (centres unmarked) [Example 275, 3-(3-chlorophenyl)-2-methyl-4-piperazin-1-ylbutan-2-ol dihydrochloride] | 31
19 | CN1CCN(CC(c2cccc(Cl)c2)C(C)(C)O)CC1 (centres unmarked) [Example 276, 3-(3-chlorophenyl)-2-methyl-4-(4-methylpiperazin-1-yl)butan-2-ol dihydrochloride] | 4
20 | CC1(C)CC(C)(C)CC(O)(C(CN2CCNCC2)c2cccc(Cl)c2)C1 (centres unmarked) [Example 277, 1-[1-(3-chlorophenyl)-2-piperazin-1-ylethyl]-3,3,5,5-tetramethylcyclohexanol dihydrochloride] | 17
21 | CN1CCN(CC(c2cccc(Cl)c2)C2(O)CC(C)(C)CC(C)(C)C2)CC1 (centres unmarked) [Example 278, 1-[1-(3-chlorophenyl)-2-(4-methylpiperazin-1-yl)ethyl]-3,3,5,5-tetramethylcyclohexanol dihydrochloride] | 25

The next lines start with the values.

Row | inhibition at 1 µM [%] | SMILES
22 | 35 | CN1CCC(O)(C(CN2CCNCC2)c2cccc(Br)c2)CC1 (centres unmarked) [Example 58, 4-[1-(3-bromophenyl)-2-piperazin-1-ylethyl]-1-methylpiperidin-4-ol dihydrochloride]
23 | 25 | COc1ccc(C(CN2CCN(C)CC2)C2(O)CCC(C(C)(C)C)CC2)cc1Br (centres unmarked) [Example 73, 1-[1-(3-bromo-4-methoxyphenyl)-2-(4-methylpiperazin-1-yl)ethyl]-4-tert-butylcyclohexano dihydrochloride]
24 | 22 | CN1CCN(CC(c2cccc(Cl)c2)C2(O)CCOCC2)CC1 (centres unmarked) [Example 78, 4-[1-(3-chlorophenyl)-2-(4-methylpiperazin-1-yl)ethyl]tetrahydro-2H-pyran-4-ol dihydrochloride]
25 | 20 | CN1CCN(CC(c2cccc(Br)c2)C2(O)CCC(C(C)(C)C)CC2)CC1 (centres unmarked) [Example 79, 1-[1-(3-bromophenyl)-2-(4-methylpiperazin-1-yl)ethyl]4-tert-butylcyclohexanol dihydrochloride]
26 | 19 | CCCC(O)(CCC)C(CN1CCN(C)CC1)c1cccc(Br)c1 (centres unmarked) [Example 82, 4-[1-(3-bromophenyl)-2-(4-methylpiperazin-1-yl)ethyl]heptan-4-ol dihydrochloride]
27 | 18 | COc1ccc(C(CN2CCNCC2)C2(O)CCC(C(C)(C)C)CC2)cc1Br (centres unmarked) [Example 84, 1-[1-(3-bromo-4-methoxyphenyl)-2-piperazin-1-ylethyl]4-tert-butylcyclohexanol dihydrochloride]
28 | 16 | CN1CCN(CC(c2cccc(Cl)c2)C(O)(C2CC2)C2CC2)CC1 (centres unmarked) [Example 86, 2-(3-chlorophenyl)-1,1-dicyclopropyl-3-(4-methylpiperazin-1-yl)propan-1-ol dihydrochloride]
29 | 16 | CN1CCN(CC(c2cccc(Br)c2)C2(O)CC(C)(C)CC(C)(C)C2)CC1 (centres unmarked) [Example 88, 1-[1-(3-bromophenyl)-2-(4-methylpiperazin-1-yl)ethyl]-3,3,5,5-tetramethylcyclohexanol dihydrochloride]
30 | 12 | CC(C)(C)C1CCC(O)(C(CN2CCNCC2)c2cccc(Cl)c2)CC1 (centres unmarked) [Example 93, 4-tert-butyl-1-[1-(3-chlorophenyl)-2-piperazin-1-ylethyl]cyclohexanol dihydrochloride]

same assay, conditions: at 10 μM test compound, [3H]NE uptake

Row | inhibition at 10 µM [%] | SMILES
31 | 20.9 | OC1(C(CN2CCNCC2)c2cccc3ccccc23)CCC2CCCCC2C1 (centres unmarked) [Example 329, 2-[1-(1-naphthyl)-2-piperazin-1-ylethyl]decahydronaphthalen-2-ol dihydrochloride]
32 | 11.4 | CN1CCN(CC(c2cccc(Cl)c2)C2(O)CCCC3CCCCC32)CC1 (centres unmarked) [Example 331, 1-[1-(3-chlorophenyl)-2-(4-methylpiperazin-1-yl)ethyl]decahydronaphthalen-1-ol dihydrochloride]
